Experimental data reported in US10766942B2, “Fragments of syndecan-2 having anti-angiogenic activity” (Queen Mary University of London, priority 2014, dated 2020).

How the values were obtained:
[1] = system: choroidal neovascularisation; test: Laser-induced choroidal neovascularisation in vivo; parameters: species or system mouse; details: C57BL mice; 1 μM; 7 days post injury; injected into the eyes
Method: 6 Week old C57BL mice were anaesthetised on day 0 and 3 laser burns were applied to both eyes. On day 3, 1 μl of 4 μM QM107 (hS2pep), PBS or 4 μM scrambled control were injected into both eyes of the animals. On day 7 the choroidal neovascularisation, in response to the laser lesion, were observed by fluorescein angiography. The area of Choroidal neovascularistaion was then calculated by analysis of images using IMAGEJ.
C57BL mice were treated as described above and it is evident from FIG. 11 that around 30% less choroidal neovascularisation occurs in mice treated with 1 μM of QM107 7 days post injury as compared to animals treated with PBS or the scrambled control. N=10 for each condition and significance was calculated using a students t test.

murine skin ECs = test: Endothelial cell invasion through Collagen I (transwell); assay type: cell-based; details: 1 uM, counted after 24 hours, vs scr
Method: 50,000 skin ECs were seeded and cells which had passed through the matrix were counted after 24 hours. Cells were stained with Calcein (5 μM) and cells imaged using an Olympus IX81 inverted microscope and a Hamamatuse Orca ER digital camera. Fluorescent cells are shown in (A) and the % migrated cells compared to the untreated control is shown in B. Cell numbers were counted from four independent images and error bars represent the SEM. Significance was calculated using 1 way ANOVA with Tukey's multiple comparison p<0.0001).
Invasion through the extracellular matrix is another indicator of angiogenesis. Collagen I matrices containing 1 uM of hS2pep and scr were prepared in an […] transwell. 50,000 murine skin ECs were seeded and cells which had passed through the matrix were counted after 24 hours.
Invasion assay: Invasion assays through collagen and Matrigel matrices were performed in 24-well plates with transwell inserts (Millipore; 8 μm pore size, polyester (PET) membrane). […] Invasion was measured after 6 hours after which time gels were removed with a cotton swab, the filter washed in PBS and stained with calcein (Invitrogen) and the number of cells attached to the filter was counted.

murine aortic ring = test: Mouse aortic ring model of angiogenic sprout formation; assay type: cell-based; details: 0.5 μM in medium; sprouts counted after 7 days; murine aortic rings
Method: Aortic ring assay: Thoracic aortas dissected from cervically dislocated 180-200 g male wistar rats (Harlan Laboratories) or 6 week old C57BL/6 mice (Charles River) were sliced into 0.5 mm sections and incubated overnight in serum free OptiMEM (Invitrogen) at 37° C. Aortic rings were embedded in type I collagen (1 mg/ml) in E4 media (Invitrogen) containing either GST, syndecan-2 mutant proteins or peritoneal exudates in 48 well plates. Wells were supplemented with OptiMEM with 1% FBS and 10 ng/ml VEGF (R and D systems, 30 ng/ml for murine rings) and incubated at 37° C., 10% CO2. Angiogenic sprouts from rat and mouse aortas were counted after 4 days and 8 days respectively (Method based on that of Nicosia and Ottinetti (Laboratory Investigation 63:115-122, 1990) and modified in De Rossi et al. (Journal of Genetic Syndromes & Gene Therapy 4, 2013).
The peptide was added to the medium and sprouts were counted after 7 days in culture. Data represents the mean of at least 15 rings and error bars represent the SEM. Significance is indicated on the basis of a non-paired students t test (p***<0.001).

Choroid explants = test: Choroid explant model of angiogenic sprout formation; assay type: cell-based, mouse; details: doses 0.1 μM to 1 μM, counted after 7 days
Method: 18 day old C57BL6 mice were sacrificed by cervical dislocation and eyes were enucleated prior to an incision being made 1 mm below the iris and removal of the iris, cornea lens and retina. The choroid is then removed flattened and cut into 1 mm pieces prior to incubation in serum free OptiMEM o/n at 37° C. Choroid explants are then embedded in a Collagen I matrix containing scrambled or experimental peptides and supplemented with OptiMEM containing 10 ng/ml murine VEGFA. Angiogenic sprouts were counted after 7 days.
The choroid is a vascular bed beneath the retinal pigment epithelium and supplies oxygen and nutrients to the outer retina. The choroid can be readily isolated from the murine eye and when placed in a suitable medium and after 4-6 days in culture vessel sprouting occurs and can be quantified. This assay recapitulates Choroidal neovascularisation, the cause of central vision loss in wet Age Related Macular Degeneration. […] Data is the mean number of sprouts from at least 6 Choroid explants from a total of 8 animals. Error bars represent the SEM and significance was calculated using a students t test p<0.05.

HUVECs [2] = test: Scratch wound cell migration assay on HUVEC monolayers; assay type: cell-based, human
Method: In this assay scratches are made in confluent monolayers of HUVECS and the cells incubated in the presence or absence of different concentrations of the human syndecan-2 peptides. Cell migration is measured by time lapse microscopy using an Olympus IX81 microscope with a controlled environment chamber set at 37° C., 10% CO2. Images were captured every 30 minutes using a Hamamatsu Orca ER digital camera and processed using Cell^M software (Olympus). […]
In one assay, scratches were made in confluent monolayers of HUVECs and the cells incubated in the presence or absence of different concentrations of hS2pep (human syndecan-2 peptide) and scrambled peptides (FIG. 1A).
Scratch wound migration assays: Scratch wound migration assays were performed on confluent monolayers of ECs. Wounds were made using a pipette tip, and fusion proteins were added to the medium and images were captured every 30 minutes for 12 hours by time lapse microscopy using an Olympus IX81 microscope. Percentage wound closure was calculated and individual cells tracked using Image J.

Matrigel plugs = test: Matrigel plug assay (haemoglobin content); assay type: in vivo, mouse; details: 50 μM incorporated in plug; C57BL6 mice; vs scrambled peptide control or PBS
Method: Mice were sacrificed after three days and the plugs excised, photographed and incubated overnight in PBS. Haemoglobin was quantified using Drabkin's reagent (Sigma) as described by the manufacturer. All experiments were performed under the UK legislation for the protection of animals, and at the end of all in vivo procedures involving anaesthesia, animals were humanely killed by cervical dislocation in accordance with UK Home Office regulations. Excised plugs were frozen in liquid nitrogen and subsequently embedded in ice cold OCT, 15 μm sections were made using a cryostat at −20° C. Following fixation with 4% PFA for 5 min and blocking with 10% Normal Goat Serum for 15 min, sections were stained for nuclei (DRAQ5) and the EC marker CD31 overnight. Images were captured using a PASCAL laser-scanning confocal microscope (Carl Zeiss, 10× objective). Quantification was performed using the IMARIS software and Photoshop (Adobe), ECs were identified by co-localization of nuclei with CD31 staining.
Data is from 2 plugs per animal and is the mean of two measurements.

HUVECs [3] = test: Capillary network (tubule) formation of HUVECs on growth factor depleted Matrigel; assay type: cell-based, human; details: 1 μm, FIG. 3B
Method: 80,000 HUVECs were seeded into 24 well plates coated with 100 μl/well of growth factor depleted Matrigel (BD Sciences) in the presence of the human syndecan-2 peptides scr or hS2pep at the concentrations indicated (scr corresponds to a scrambled control peptide). Tubule formation was monitored by time lapse microscopy using an Olympus IX81 microscope with a controlled environment chamber set at 37° C., 10% CO2. Images were captured every 30 minutes using a Hamamatsu Orca ER digital camera and processed using Cell^M software (Olympus). (A) Phase contrast images of tubules after 6 hours in culture. (B) Branch points were counted on at least four representative images. A branch point is defined at which two or more tubules meet.
To investigate the inhibitory effect of peptides derived from human syndecan-2, 80,000 HUVECs were seeded into 24 well plates coated with 100 ul/well of growth factor depleted Matrigel in the presence of scr or hS2pep. Tubule formation was monitored by time lapse microscopy (FIG. 3A).

hS2pep: Peptide derived from human syndecan-2 (SEQ ID NO 6); development name QM107 (PAEEDTNVYTEKHSDSLF; hS2pep peptide derived from human syndecan-2)
Reduction of choroidal neovascularisation (area) compared to PBS or scrambled control [1]: around 30% | Invasion through collagen I (murine skin ECs): inhibited | Angiogenic sprout formation (murine aortic ring): inhibited | Formation of angiogenic sprouts (Choroid explants): inhibit the formation of angiogenic sprouts | Scratch wound closure (HUVECs [2]; 1 uM, HUVECs, FIG. 1B): greatly reduced | HUVEC cell migration (HUVECs [2]; after 4 hours in culture, vs scrambled peptide): significantly inhibited | Haemoglobin content of Matrigel plugs (Matrigel plugs): greatly reduced | Capillary network formation (number of branch points) (HUVECs [3]): inhibited
